Tests used:
[1] = system: Erysiphe graminis f.sp. tritici (wheat powdery mildew); conditions: in vivo
[2] = system: Erysiphe graminis f.sp. hordei (barley powdery mildew); conditions: in vivo
[3] = system: Pyricularia oryzae (rice blast); assay type: in vivo; conditions: 200 ppm, rice leaf segments, sprayed before inoculation, assessed four days after inoculation

Compound	melting point [°C]	control of disease [1]	control of disease [2]	control of disease [3]
CCC(C)Nc1nc2ncncc2c(Cl)c1-c1c(F)cc(F)cc1F (stereo not shown)	179			
CC(C)Nc1c(-c2c(F)cc(F)cc2F)c(Cl)nc2cncnc12 [Compound 3 (1), [6-chloro-7-(2,4,6-trifluorophenyl)-pyrido[3,2-d]pyrimidin-8-yl]-isopropylamine]		greater than 60%	greater than 60%	greater than 60%

— US20080287472A1 (priority 2002, published 2008)
